Data from US9649313B2, “Use of ITK inhibitors for the treatment of cancer” (The University of North Carolina at Chapel Hill, priority 2012, dated 2017).

Key:
ABL = target: T1, ABL (Homo sapiens, UniProt P00519); test: cell-free kinase assay; format: biochemical
T1 construct: purchased Carna Biosciences
Description: (§1) We investigated the potency and selectivity of BI 10N against 56 kinases using a cell-free assay (Table 8A). […] The selectivity of this inhibitor was investigated by testing the potency of the inhibitor at two concentrations with 53 kinases by Carna Biosciences (MA) (Table 2).

FGFR1 = target: T2, FGFR1 (Homo sapiens, UniProt P11362); test: cell-free kinase assay; format: biochemical
T2 construct: purchased Carna Biosciences
T2 sequence (P11362 22-822): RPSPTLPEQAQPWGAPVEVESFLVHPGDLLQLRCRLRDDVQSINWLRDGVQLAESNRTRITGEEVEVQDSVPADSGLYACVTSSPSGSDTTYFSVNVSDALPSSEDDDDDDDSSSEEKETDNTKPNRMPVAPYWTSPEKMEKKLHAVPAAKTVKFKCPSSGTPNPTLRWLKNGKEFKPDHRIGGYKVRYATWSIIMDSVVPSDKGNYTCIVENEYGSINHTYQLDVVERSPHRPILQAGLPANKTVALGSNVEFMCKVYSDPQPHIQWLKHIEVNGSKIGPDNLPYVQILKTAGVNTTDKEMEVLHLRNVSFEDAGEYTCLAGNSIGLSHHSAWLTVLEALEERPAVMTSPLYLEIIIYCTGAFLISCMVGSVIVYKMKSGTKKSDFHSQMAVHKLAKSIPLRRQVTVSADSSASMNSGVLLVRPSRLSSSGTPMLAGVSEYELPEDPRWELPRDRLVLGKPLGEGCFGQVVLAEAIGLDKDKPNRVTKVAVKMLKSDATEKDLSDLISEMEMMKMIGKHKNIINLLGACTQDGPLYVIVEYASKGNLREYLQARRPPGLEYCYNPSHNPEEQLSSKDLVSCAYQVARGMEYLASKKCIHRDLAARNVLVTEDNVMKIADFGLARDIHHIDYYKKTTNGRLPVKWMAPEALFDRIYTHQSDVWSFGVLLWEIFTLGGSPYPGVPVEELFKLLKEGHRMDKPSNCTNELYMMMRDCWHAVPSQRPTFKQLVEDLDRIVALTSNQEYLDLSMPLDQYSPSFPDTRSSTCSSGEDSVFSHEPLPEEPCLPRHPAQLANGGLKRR
Description: as §1

FYN = target: T3, FYN (Homo sapiens, UniProt P06241); test: cell-free kinase assay; format: biochemical; settings: Table 2, by Carna Biosciences
T3 construct: purchased Carna Biosciences
Description: as §1

IGF1R = target: T4, IGF1R (Homo sapiens, UniProt P08069); test: cell-free kinase assay; format: biochemical
T4 construct: purchased Carna Biosciences
T4 sequence (P08069 31-1367): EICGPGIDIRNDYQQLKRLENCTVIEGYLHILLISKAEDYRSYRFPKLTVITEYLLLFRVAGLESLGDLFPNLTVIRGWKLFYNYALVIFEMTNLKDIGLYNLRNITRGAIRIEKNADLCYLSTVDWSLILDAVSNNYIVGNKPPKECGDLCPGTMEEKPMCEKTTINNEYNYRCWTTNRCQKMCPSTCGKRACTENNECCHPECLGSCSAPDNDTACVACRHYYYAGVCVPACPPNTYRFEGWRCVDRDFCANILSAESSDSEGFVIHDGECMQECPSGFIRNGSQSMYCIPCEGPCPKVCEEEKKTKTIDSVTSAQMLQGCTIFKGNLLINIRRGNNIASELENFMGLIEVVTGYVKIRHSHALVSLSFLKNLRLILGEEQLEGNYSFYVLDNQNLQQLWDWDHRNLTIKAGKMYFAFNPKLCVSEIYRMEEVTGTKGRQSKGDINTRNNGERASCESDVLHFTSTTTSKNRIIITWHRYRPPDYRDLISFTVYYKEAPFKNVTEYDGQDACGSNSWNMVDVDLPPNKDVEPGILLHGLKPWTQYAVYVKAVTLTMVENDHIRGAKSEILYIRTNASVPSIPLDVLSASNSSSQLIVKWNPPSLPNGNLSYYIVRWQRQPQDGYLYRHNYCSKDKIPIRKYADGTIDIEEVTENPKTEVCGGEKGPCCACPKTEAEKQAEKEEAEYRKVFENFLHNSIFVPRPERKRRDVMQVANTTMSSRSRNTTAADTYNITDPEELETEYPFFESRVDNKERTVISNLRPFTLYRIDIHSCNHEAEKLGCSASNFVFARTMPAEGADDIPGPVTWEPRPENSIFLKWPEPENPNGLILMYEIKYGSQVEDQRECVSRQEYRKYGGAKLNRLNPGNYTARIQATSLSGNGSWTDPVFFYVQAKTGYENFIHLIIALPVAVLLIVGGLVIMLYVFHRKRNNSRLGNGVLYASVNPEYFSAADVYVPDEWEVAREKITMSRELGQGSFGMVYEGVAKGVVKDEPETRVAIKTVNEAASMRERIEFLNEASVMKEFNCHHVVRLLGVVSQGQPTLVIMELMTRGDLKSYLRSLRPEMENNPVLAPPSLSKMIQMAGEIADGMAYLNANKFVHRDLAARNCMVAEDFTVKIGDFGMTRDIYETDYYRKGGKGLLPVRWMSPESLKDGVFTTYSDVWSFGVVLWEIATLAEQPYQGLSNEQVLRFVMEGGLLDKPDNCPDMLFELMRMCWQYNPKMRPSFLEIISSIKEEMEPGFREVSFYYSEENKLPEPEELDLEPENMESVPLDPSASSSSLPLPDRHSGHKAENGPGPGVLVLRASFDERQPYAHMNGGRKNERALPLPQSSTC
Description: as §1

LCK = target: T5, LCK (Homo sapiens, UniProt P06239); test: cell-free kinase assay; format: biochemical
T5 construct: purchased Carna Biosciences
Description: as §1

TRKA = target: T6, TRKA (Homo sapiens, UniProt P04629); test: cell-free kinase assay; format: biochemical
T6 construct: purchased Carna Biosciences
T6 sequence (P04629 33-796): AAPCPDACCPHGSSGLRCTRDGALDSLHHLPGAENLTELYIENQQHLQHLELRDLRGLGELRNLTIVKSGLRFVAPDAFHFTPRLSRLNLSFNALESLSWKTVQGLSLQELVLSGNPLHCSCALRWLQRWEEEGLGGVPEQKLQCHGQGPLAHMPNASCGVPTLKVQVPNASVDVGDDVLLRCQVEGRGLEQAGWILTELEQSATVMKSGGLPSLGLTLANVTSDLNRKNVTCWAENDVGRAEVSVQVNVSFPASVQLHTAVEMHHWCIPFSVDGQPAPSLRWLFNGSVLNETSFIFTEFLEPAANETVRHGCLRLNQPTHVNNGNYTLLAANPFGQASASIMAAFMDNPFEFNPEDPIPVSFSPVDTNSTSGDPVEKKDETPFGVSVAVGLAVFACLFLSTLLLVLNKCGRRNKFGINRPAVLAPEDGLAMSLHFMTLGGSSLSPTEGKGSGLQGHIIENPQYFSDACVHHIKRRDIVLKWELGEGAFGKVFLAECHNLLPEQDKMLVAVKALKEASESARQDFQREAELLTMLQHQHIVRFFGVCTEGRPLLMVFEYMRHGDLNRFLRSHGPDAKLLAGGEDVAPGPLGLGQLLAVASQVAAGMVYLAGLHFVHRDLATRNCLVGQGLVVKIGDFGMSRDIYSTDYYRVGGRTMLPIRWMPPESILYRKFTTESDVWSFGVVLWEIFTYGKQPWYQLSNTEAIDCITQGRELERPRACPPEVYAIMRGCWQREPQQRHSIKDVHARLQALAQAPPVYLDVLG
Description: as §1

TRKC = target: T7, TRKC (Homo sapiens, UniProt Q16288); test: cell-free kinase assay; format: biochemical
T7 construct: purchased Carna Biosciences
T7 sequence (Q16288 32-839): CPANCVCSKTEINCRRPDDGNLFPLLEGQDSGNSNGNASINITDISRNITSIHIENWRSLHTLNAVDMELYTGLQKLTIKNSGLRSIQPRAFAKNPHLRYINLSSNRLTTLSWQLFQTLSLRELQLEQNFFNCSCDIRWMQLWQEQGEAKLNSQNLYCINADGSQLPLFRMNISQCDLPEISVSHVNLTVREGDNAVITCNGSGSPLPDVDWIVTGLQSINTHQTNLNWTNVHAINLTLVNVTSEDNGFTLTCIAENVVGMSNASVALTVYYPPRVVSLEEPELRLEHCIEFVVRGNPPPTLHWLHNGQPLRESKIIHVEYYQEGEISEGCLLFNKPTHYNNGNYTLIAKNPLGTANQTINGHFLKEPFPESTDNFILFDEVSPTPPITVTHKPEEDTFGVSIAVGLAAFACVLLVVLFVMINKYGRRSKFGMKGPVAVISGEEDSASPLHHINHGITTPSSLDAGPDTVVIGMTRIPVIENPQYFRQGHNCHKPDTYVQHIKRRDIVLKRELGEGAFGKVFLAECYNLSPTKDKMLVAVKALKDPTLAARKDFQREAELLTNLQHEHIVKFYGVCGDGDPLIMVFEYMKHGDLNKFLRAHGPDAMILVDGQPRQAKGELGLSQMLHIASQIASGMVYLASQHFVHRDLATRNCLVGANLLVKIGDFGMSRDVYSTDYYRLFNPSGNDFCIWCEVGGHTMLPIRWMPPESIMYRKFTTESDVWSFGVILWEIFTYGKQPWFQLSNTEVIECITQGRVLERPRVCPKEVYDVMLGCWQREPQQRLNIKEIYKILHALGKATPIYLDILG
Description: as §1

PMWK (ITKLO) cell line = test: soft agar assay (anchorage independent growth); format: cell-based, Human
Protocol: (§2) FIG. 5A-5C. Effects of BI 10N inhibitor on proliferation and motility of melanoma cells. FIG. 5A) Cell motility assays were performed as described in FIG. 4A-4E; however, the inhibitor BI 10N was added to the media to decrease ITK kinase activity in parental cell lines instead of using the shRNA ITK knockdown cell lines. BI 10N was added to the media 24 hours prior to the start of the motility assay and the VivaView camera system was used to image cellular motility of the melanoma cells as described previously. FIG. 5B) The proliferation assays were completed as described in FIG. 4A-4E, substituting the BI 10N compound for the shRNA. Cells were trypsinized and counted using the Invitrogen Countess. Fifty thousand cells were placed into each well of a 6 well plate and BI 10N was added to the indicated concentrations. The cells were counted with the Invitrogen Countess at 3, 5, and 6 or 7 days after plating to assess the proliferation rates of the different cell lines in the presence of BI 10N. FIG. 5C) Both ITKHI (RPMI 8322) and ITKLO (PMWK) melanoma cell lines were grown in the presence of BI 10N (10-200 nM) in soft agar. In 24-well cell culture plates 2,500 cells per well were added to a 1.4% agarose solution. The agarose and cell solution was then poured on top of a solidified base agar. The cells were incubated at 37° C. for three to four weeks to ensure adequate growth before analysis. FIG. 5D) Cell cycle analysis of PMWK, VMM 39, and RPMI 8322 cells that have been treated with increasing concentrations of BI 10N. Following 3 days of BI 10N treatment, the cells were incubated with EdU for 3 hours and were subsequently assessed for 5-ethynyl-2′-deoxyuridine (EdU) incorporation rate and DNA content with FxCycle Violet. Shown in this panel are the percentages of cells in G0/G1 (low DNA and EdU content), S (high EdU and low-to-medium DNA content), and G2/M (Low EdU and high DNA content)
(§3) Soft agar assays were performed employing the RPMI 8322, VMM 39, PMWK, and A375 cell lines. In 24-well cell culture plates (BD Falcon), a 2.0% base agar solution in the appropriate cell line media was poured and allowed to solidify. Tissue culture cells were then trypsinized from their flask, counted using the Countess® Automated Cell Counter, and 2,500 cells per well were added to a 1.4% agarose solution then poured on top of the solidified base agar. Each of the […] layers in the culture plate wells contained BI 10N in the indicated concentrations. The cells were incubated at 37° C. for three to four weeks to ensure adequate growth. 3-(4,5-dimethylthiazol-2-yl)-2,5-diphenyltetrazolium bromide (MTT) was then added in order to perform colony counts using Image J photo processing software.

[1] = test system: RPMI 8322 (ITKHI) cell line; test: soft agar assay (anchorage independent growth); format: cell-based, Human
Protocol: as §2, §3

ITK = target: T8, ITK (Homo sapiens, UniProt Q08881); settings: Riether et al., 2009, cited from earlier work
T8 construct: purchased Carna Biosciences
T8 sequence (Q08881 1-620): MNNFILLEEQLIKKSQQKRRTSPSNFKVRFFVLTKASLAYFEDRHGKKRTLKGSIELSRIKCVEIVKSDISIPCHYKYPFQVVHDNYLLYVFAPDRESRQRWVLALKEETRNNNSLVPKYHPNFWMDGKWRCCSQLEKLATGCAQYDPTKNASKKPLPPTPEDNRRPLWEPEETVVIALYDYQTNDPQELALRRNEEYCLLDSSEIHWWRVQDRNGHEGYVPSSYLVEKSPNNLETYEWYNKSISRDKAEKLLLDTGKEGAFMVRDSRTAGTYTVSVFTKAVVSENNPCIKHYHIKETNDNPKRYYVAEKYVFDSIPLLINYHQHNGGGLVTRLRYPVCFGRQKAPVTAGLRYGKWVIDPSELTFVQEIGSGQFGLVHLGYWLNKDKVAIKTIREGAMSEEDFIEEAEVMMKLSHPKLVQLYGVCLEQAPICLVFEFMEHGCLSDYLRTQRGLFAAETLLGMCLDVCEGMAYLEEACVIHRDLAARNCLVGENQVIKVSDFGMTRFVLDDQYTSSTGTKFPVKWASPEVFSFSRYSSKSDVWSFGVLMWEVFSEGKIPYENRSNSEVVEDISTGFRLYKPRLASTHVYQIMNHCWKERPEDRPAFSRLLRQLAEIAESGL

[2] = Homo sapiens, 672 h, three to four weeks, read-out: amount needed to decrease the number of colonies formed by 50%

T1 sequence (P00519 whole entry): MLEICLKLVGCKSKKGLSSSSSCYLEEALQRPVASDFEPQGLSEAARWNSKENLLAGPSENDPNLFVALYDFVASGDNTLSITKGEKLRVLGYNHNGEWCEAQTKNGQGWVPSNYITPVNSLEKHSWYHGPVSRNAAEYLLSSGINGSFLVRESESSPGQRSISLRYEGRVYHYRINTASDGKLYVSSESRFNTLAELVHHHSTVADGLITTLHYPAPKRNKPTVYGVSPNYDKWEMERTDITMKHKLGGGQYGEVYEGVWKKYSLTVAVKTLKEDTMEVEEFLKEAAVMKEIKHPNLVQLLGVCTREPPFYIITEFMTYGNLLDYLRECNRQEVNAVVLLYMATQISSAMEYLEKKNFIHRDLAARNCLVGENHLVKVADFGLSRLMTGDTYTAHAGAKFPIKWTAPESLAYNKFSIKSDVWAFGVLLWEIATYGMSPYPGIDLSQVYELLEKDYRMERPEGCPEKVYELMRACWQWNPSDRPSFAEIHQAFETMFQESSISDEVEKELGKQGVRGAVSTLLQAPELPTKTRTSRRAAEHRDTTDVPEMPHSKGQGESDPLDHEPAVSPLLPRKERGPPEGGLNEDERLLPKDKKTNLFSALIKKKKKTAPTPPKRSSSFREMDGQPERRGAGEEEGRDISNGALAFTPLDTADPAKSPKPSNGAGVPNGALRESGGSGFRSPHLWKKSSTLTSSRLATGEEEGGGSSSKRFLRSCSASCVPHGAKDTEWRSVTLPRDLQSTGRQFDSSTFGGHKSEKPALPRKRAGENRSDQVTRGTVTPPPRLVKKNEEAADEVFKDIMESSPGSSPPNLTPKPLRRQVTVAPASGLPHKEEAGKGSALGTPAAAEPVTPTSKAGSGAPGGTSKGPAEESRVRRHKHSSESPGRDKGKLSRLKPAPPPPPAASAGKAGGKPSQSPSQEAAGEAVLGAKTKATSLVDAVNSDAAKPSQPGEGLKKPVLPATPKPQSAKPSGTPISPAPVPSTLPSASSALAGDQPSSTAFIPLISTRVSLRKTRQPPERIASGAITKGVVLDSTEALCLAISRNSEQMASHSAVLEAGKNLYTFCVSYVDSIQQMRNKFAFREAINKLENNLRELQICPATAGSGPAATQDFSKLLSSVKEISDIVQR

IC50 (ABL; Table 2, by Carna Biosciences): 23.5 nM | inhibition at 0.2 µM (ABL; single inhibitor concentration): 91.9% | IC50 (FGFR1; Table 2, by Carna Biosciences): 59.7 nM | inhibition at 0.2 µM (FGFR1; single inhibitor concentration): 80.2% | IC50 (FYN): 24.2 nM | IC50 (IGF1R; Table 2, by Carna Biosciences): 886 nM | inhibition at 0.2 µM (IGF1R; single inhibitor concentration): 19% | IC50 (LCK; Table 2, by Carna Biosciences): 10.6 nM | inhibition at 0.2 µM (LCK; single inhibitor concentration): 96.7% | selectivity for ITK over TRKA (TRKA): about 10 fold | mode of inhibition (TRKA; TRKA): time-dependent inhibitor | IC50 (TRKA; TRKA, 1 mM ATP, Km ATP 65 μM): 0.828 nM | IC50 (TRKA; TRKA, ATP at approximately the Km for ATP, more potent than can be measured): < 0.5 nM | IC50 (TRKA; TRKA, Table 2, by Carna Biosciences): 0.459 nM | inhibition at 0.2 µM (TRKA; TRKA, single inhibitor concentration): 106% | IC50 (TRKC): 1.58 nM | selectivity for ITK over TRKC (TRKC): about 10 fold
SMILES: CC(C)C(C)CNCc1ccc2c(c1)[nH]/c(=N\C(=O)c1ccc(C3=CN=NC3)s1)n2CC(C)(C)O (centres unmarked) [BI 10N]
anchorage-independent growth (PMWK (ITKLO) cell line): strongly decreased | IC50 (PMWK (ITKLO) cell line; [2]): 25 nM | anchorage-independent growth [1]: strongly decreased | IC50 [1, 2]: 50 nM | EC50 (ITK; read-out: EC50 (selective inhibitor of ITK)): 1 nM | IC50 (ITK; read-out: IC50 (inhibit ITK)): 1 nM
